For assay [1], the target named is T1, Phosphatidylserine lipase ABHD16A (Mus musculus) (UniProt Q9Z1Q2).
T1 sequence (whole entry): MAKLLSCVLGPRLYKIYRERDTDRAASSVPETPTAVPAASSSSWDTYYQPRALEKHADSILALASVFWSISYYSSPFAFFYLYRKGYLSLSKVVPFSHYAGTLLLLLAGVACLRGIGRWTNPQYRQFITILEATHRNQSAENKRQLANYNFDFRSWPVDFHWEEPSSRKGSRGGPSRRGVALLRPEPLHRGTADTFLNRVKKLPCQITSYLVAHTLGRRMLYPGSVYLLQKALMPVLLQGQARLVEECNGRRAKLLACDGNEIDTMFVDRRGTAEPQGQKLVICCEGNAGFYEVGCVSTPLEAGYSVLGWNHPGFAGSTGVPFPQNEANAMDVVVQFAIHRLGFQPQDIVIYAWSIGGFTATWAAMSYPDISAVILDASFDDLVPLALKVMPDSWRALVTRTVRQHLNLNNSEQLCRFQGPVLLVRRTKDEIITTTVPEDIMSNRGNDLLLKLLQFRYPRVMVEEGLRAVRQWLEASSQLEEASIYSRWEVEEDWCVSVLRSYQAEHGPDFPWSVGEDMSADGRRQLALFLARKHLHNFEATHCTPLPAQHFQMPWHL
As to conditions: Brain, 5 uM.
Description: Inhibition of BAT5 in mouse brain assessed as reduction in spectral count at 5 uM treated for 30 mins by ABPP-MudPIT assay relative to control

The target of assay [2] is T2, Lysophosphatidylserine lipase ABHD12 (Mus musculus) (UniProt Q99LR1).
T2 sequence (whole entry): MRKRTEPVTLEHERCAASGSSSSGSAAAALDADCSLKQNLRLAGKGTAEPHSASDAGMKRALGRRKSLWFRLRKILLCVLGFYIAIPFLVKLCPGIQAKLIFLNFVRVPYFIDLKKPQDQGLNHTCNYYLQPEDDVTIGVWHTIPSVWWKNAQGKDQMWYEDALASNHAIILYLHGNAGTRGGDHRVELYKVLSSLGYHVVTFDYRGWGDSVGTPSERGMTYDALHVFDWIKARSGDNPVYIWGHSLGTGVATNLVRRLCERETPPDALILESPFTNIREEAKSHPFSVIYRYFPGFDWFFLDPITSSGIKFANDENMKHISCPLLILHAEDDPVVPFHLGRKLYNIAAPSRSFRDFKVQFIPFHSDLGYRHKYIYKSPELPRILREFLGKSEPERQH
As to conditions: Brain, 5 uM.
Description: Inhibition of ABHD12 in mouse brain assessed as reduction in spectral count at 5 uM treated for 30 mins by ABPP-MudPIT assay relative to control

Assay [3] deals with Diacylglycerol lipase-alpha (Homo sapiens, UniProt Q9Y4D2). Description: Inhibition of human recombinant DAGLalpha overexpressed in african green monkey COS7 cells. The assay is classed as cell-based, COS-7.
Chain of Diacylglycerol lipase-alpha (Q9Y4D2 whole entry): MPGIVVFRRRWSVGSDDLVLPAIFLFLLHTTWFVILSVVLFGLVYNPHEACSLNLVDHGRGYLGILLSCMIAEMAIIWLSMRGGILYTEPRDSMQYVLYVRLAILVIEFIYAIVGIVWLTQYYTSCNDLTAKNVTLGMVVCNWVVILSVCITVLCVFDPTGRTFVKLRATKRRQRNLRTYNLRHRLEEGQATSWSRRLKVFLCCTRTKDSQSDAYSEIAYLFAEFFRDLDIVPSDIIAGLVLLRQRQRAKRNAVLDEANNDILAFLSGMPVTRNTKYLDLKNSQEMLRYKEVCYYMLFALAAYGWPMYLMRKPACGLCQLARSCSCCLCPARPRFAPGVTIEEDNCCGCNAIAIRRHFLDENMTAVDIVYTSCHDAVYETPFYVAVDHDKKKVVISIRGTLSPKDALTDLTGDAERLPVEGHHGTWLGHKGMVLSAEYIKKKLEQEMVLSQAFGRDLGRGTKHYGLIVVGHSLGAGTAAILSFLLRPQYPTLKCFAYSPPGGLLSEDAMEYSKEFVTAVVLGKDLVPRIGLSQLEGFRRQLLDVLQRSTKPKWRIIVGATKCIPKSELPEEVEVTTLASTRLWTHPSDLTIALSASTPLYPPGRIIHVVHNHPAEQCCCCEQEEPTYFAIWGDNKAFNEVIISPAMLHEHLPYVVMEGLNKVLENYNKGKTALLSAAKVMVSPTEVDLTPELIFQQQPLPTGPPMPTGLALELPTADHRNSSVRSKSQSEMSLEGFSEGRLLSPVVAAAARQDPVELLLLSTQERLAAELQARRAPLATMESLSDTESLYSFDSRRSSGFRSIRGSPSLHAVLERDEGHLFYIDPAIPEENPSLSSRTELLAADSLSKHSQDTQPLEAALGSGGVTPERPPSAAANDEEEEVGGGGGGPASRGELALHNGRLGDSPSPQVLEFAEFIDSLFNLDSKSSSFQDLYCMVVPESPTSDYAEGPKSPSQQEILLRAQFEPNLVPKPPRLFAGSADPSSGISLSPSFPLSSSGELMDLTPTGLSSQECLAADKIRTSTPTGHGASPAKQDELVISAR
Assay [4] has as its target Diacylglycerol lipase-beta (Homo sapiens, UniProt Q8NCG7). The assay is described as follows: Inhibition of human recombinant DAGLbeta overexpressed in african green monkey COS7 cells. The assay is classed as cell-based, COS-7.

The structures appear in SMILES notation. Bounds are passed on as bounds.

Chain of Diacylglycerol lipase-beta (Q8NCG7 whole entry): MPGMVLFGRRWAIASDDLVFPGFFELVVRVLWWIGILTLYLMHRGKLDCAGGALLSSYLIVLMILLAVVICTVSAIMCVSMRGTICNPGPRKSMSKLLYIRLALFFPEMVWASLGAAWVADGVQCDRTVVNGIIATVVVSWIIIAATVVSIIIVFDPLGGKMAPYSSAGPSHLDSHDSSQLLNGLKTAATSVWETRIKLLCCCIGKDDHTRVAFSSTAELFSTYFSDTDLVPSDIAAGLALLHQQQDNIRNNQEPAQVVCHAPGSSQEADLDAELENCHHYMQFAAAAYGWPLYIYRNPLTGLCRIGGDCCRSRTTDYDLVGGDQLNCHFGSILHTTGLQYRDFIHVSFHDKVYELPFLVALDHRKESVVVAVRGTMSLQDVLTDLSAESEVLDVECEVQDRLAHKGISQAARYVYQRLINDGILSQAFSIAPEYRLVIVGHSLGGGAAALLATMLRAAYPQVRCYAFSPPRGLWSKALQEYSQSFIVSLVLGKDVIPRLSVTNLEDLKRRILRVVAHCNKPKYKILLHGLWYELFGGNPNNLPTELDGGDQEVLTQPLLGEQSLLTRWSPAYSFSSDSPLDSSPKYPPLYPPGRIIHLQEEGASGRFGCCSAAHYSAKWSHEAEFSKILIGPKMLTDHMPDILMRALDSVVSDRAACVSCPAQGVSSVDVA

A word on the inhibition: it is the change of the read-out against control, counted positive when it falls. As for `CCCCCCCCCCC[C@@H](C[C@@H]1OC(=O)[C@H]1CCCCCC)OC(=O)[C@H](CC(C)C)NC=O` [ORLISTAT], the inhibition in assay [1] and in assay [2] was over 60% throughout.

The IC50 is the concentration needed to halve the response being measured. With `O=C(NCCCCCCNC(=O)ON=C1CCCCC1)ON=C1CCCCC1`, the half-maximal inhibitory concentration (IC50) in assay [3] and in assay [4] was 60 nM each time.
